From patent US6022699A, “Myeloperoxidase assay of endotoxin-induced inflammation” (Alcon Laboratories, Inc., priority 1999, dated 2000)
Entries after “also recorded” stand apart in the source; their conditions may differ.

What was measured:
[1] = system: PMN infiltrates within the different compartments of the eye; experiment: Histopathologic evaluation of PMN infiltrates in eye sections; assay type: in vivo, Lewis rat; settings: topical dexamethasone-treated animals
Protocol: Inhibition of PMN influx into ocular tissue of the Lewis rat by dexamethasone was evaluated as follows. Dexamethasone suspensions were prepared in a carbopol ophthalmic suspension vehicle at concentrations of 0.0033%, 0.01%, 0.033%, 0.04% and 0.10%, w/v. A 5 μL aliquot of test drug or vehicle was applied topically to each eye of the experimental animals 24, 20, and 4 hours prior to, at the time of, and 4 and 20 hours after LPS foot pad injection. Twenty-four (24) hours following LPS administration, eyes were enucleated, quickly frozen on dry ice and stored at -70° C. until used for tissue extraction and assessment of MPO activity. Alternatively, eyes were enucleated and fixed in a solution of phosphate buffered (40 mM) formalin (4%), pH 6.0. Eyes were embedded in paraffin and sectioned. Using light microscopy, hematoxylin- and eosin-stained sections were examined for the presence and distribution of PMN infiltrates within the different compartments of the eye. Infiltrates were ranked subjectively on a scale ranging from 0 to 5, where 0=not remarkable, 1=minimal, 2=slight/mild, 3=moderate, 4=moderately severe, and 5=severe/high.

[2] = target: T1, Human sputum myeloperoxidase (HSMPO) (Homo sapiens, UniProt P05164); experiment: Spectrophotometric (460 nm) assay of MPO-catalyzed oxidation of o-DA; assay type: biochemical
T1 construct: mature light and heavy chains from one precursor
T1 sequence (P05164 165-745): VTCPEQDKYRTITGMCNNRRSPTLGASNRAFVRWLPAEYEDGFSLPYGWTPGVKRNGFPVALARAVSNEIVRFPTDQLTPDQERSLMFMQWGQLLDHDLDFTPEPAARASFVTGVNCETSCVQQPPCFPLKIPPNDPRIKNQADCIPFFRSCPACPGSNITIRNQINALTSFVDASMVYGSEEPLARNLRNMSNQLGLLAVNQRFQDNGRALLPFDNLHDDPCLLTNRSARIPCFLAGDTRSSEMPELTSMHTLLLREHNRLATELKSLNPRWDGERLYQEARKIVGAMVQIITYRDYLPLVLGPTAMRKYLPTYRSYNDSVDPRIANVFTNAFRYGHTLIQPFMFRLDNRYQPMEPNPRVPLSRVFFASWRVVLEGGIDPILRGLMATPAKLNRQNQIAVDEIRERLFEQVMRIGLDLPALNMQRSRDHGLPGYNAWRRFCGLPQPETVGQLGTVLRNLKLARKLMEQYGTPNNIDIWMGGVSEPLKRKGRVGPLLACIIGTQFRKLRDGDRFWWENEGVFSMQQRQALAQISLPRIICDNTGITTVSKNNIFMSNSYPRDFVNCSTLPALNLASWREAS
Protocol: N-ethylmaleimide (NEM), o-DA (3,3'-dimethoxybenzidine dihydrochloride), HTA-Br, LPS (lipopolysaccharide, E. coli 0111:B4), heparin, dexamethasone,histopaque 1083 and histopaque 1119 were obtained from Sigma Chemical Company, St. Louis, Mo. Dextran-100 was a product of Crescent Chemical Company, Hauppauge, N.Y. Hydrogen peroxide (30%) was obtained from J. T. Baker and stored at 4° C. All other chemicals used were of the highest purity available. Human sputum myeloperoxidase (HSMPO) was obtained from Elastin Products Co., Pacific, Mo. The enzyme (2.4 mg solid) was dissolved in 2.4 mL of 50 mM potassium phosphate buffer (pH 6.0), and stored in 0.1 mL aliquots at -20° C., then diluted 10-fold with 50 mM potassium phosphate buffer (pH 6.0) to provide a HSMPO concentration of 0.1 mg/mL.
To evaluate potential assay interference by ASC, conditions were selected which permitted the spectrophotometric assessment of ASC effects on the extent of o-DA oxidation. This was accomplished using sub-saturating concentrations of H2 O2 (37 mM), 1.5 mM o-DA a nd excess enzyme. MPO activity was assayed at room temperature in a final volume of 3.0 mL containing 50 mM potassium phosphate buffer (pH 6.0), 37 mM H2 O2, and 1.5 mM o-DA. Reactions were initiated by addition of 2 mg HSMPO: (a) control reaction, (b) ASC (3.2 mM) added 3.6 minutes after initiation of the reaction, (c) ASC (32 mM) added just prior to the initiation of the reaction and (d) ASC (64 mM) added just prior to the initiation of the reaction.
The effect of GSH on o-DA oxidation by HSMPO was assessed in an analogous fashion. MPO activity was assayed at room temperature in 3.0 mL of 50 mM potassium phosphate (pH 6.0), supplemented with 37 mM H2 O2, and 1.5 mM o-DA. (a) HSMPO (2 mg) was added 2 minutes after addition of NEM (6.6 mM) and GSH (1.65 mM), (b) NEM (6.6 mM) was added 5 minutes prior to addition of HSMPO (2 mg) (c) GSH (3.3 mM) was added 3.5 minutes after initiation of the reaction by addition of HSMPO (2 mg), (d) GSH (0.33 mM) was added just prior to initiation of the reaction with HSMPO (2 mg) with NEM (6.6 mM) added 20 seconds following initiation of the reaction, (e) GSH (0.33 mM) was added just prior to initiation of the reaction with HSMPO (2 mg) with NEM (6.6 mM) added 1.0 minute following initiation of the reaction, and (f) GSH (1.65 mM) was added just prior to initiation of the reaction.

`C[C@@H]1C[C@H]2[C@@H]3CCC4=CC(=O)C=C[C@]4(C)[C@@]3(F)[C@@H](O)C[C@]2(C)[C@@]1(O)C(=O)CO` [dexamethasone] was tested, and the “PMNs in anterior and posterior compartments and associated ocular tissue (histopathology)” value [1] was “dose dependent decline in PMNs”.
For `N[C@@H](CCC(=O)N[C@@H](CS)C(=O)NCC(=O)O)C(=O)O` [GSH, glutathione], the “increase in 460 nm absorbancy” value ([2]; GSH 1.65 mM present at the initiation of the MPO reaction) was “fully prevented” and the change in absorbancy ([2]; GSH 3.3 mM added to control peroxidase reactions that had ceased) was “little change in absorbancy”.
With `CCN1C(=O)C=CC1=O` [NEM, N-ethylmaleimide] the “inhibitory effect of GSH” value ([2]; NEM 6.6 mM added together with GSH 1.65 mM 2 minutes prior to addition of enzyme) was “fully abolished” and the “effect on MPO activity” value ([2]; NEM alone (6.6 mM), absence of GSH) was “does not affect MPO catalysis; also recorded: little effect on MPO activity”.
`O=C1O[C@H]([C@@H](O)CO)C(O)=C1O` [ASC, ascorbic acid] was tested, and the “effect on the 460 nm absorbance attained” value ([2]; ASC 3.2 mM added to control reaction when enzyme catalysis had ceased) was “little effect”, the “development of absorbance at 460 nm” value ([2]; ASC 64 mM added just prior to initiation) was “fully abolished” and the “interference in the spectrophotometric assay of MPO, ASC compared with GSH” value ([2]; concentration dependent) was “more effective than GSH”.
